Experimental data from patent US10941152B2, “Pyrazole compounds as modulators of FSHR and uses thereof” (TOCOPHERX, INC., priority 2014, dated 2021).
pEC50: −log10 of the molar value.

Columns and labels:
[1] = biological target: T1, follicle-stimulating hormone (FSH) receptor (Rattus norvegicus, UniProt P20395); test: Rat granulosa EC50 FSH (Assay B); type: cell-based
T1 construct: endogenous in cells; host or cells: rat granulosa cells
T1 sequence (P20395 18-692): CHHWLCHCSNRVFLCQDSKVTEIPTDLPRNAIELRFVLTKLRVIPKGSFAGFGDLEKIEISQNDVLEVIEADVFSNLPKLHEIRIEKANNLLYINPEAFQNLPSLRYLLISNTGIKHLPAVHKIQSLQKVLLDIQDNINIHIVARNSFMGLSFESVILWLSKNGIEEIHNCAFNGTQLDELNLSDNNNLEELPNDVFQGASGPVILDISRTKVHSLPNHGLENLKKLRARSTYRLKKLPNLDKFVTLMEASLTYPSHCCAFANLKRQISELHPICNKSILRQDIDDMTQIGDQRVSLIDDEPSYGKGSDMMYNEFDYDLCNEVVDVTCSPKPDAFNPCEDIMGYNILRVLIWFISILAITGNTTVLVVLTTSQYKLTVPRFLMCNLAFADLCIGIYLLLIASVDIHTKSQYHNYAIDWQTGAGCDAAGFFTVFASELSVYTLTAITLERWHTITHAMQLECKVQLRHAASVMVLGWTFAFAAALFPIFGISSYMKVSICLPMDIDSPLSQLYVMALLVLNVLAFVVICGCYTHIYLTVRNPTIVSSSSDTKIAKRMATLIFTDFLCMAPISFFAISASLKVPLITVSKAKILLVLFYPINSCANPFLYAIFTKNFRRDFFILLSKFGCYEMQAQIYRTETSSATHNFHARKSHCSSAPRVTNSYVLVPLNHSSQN
Experimental: Example 25. Rat granulosa EC50 FSH (Assay B)
The assay was performed pursuant to the teaching of Yanofsky et al. (2006) Allosteric activation of the follicle-stimulating hormone (FSH) receptor by selective, nonpeptide agonists (JBC 281(19): 13226-13233, which is incorporated by reference in the disclosure of the invention).

FSHR = biological target: T2, FSHR (Homo sapiens, UniProt P23945); test: EC50 of cyclic AMP production in CHO FSHR cells + EC20 FSH (Assay A); type: cell-based; settings: cyclic AMP production in CHO FSHR cells + EC20 FSH (0.265 pM), HTRF
T2 construct: expressed in transfected cells; host or cells: CHO (Cho-FSHR-LUC-1-1-43)
T2 sequence (P23945 18-695): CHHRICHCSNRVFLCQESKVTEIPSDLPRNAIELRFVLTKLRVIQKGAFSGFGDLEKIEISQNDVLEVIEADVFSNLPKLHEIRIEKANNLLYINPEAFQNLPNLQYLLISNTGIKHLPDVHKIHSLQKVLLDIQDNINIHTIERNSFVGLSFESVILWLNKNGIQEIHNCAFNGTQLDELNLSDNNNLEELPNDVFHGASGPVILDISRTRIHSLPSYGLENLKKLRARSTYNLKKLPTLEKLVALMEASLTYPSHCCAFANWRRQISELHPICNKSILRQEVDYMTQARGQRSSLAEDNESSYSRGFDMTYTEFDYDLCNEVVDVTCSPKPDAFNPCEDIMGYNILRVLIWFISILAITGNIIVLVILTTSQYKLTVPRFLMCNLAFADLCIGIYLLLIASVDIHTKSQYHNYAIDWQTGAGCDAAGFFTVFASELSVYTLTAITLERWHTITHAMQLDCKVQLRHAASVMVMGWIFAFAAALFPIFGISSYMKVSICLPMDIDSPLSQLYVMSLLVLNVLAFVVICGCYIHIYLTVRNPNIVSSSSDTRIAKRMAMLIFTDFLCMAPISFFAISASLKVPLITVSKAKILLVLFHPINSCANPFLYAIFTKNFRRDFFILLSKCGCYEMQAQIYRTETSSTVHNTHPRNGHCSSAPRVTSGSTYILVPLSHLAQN
Procedure, shortened: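 cAMP was detected by HTRF as the 665/620 nm ratio. The CHO-FSHR cells had first been exposed for 1 h at 37° C to test compound together with 0.265 pM FSH (EC20) and 200 μM IBMX. Responses are given as percent of the FSH standard maximum.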

Row | SMILES | pEC50 [1] | pEC50 (FSHR)
1 | COc1cc2c(cc1-c1cc(C(N)=O)ncc1F)-c1c(c(C(=O)N(C)C(C)(C)C)nn1-c1cc(Cl)cc(Cl)c1)CO2 [Compound 68, N-tert-butyl-8-(2-carbamoyl-5-fluoropyridin-4-yl)-1-(3,5-dichlorophenyl)-7-methoxy-N-methyl-1,4-dihydrochromeno[4,3-c]pyrazole-3-carboxamide] | 6.30 to 7.00 | > 8.00
2 | COc1cc2c(cc1-c1ccn(C)n1)-c1c(c(C(=O)N(CCO)C(C)(C)C)nn1-c1cc(Cl)cc(Cl)c1)CO2 [Compound 122, N-tert-butyl-1-(3,5-dichlorophenyl)-N-(2-hydroxyethyl)-7-methoxy-8-(1-methyl-1H-pyrazol-3-yl)-1,4-dihydrochromeno[4,3-c]pyrazole-3-carboxamide] | 6.30 to 7.00 | 7.00 to 8.00
3 | COc1cc2c(cc1-c1ccc(N)nc1)-c1c(c(C(=O)N(C)C(C)(C)C)nn1-c1cc(Cl)cc(Cl)c1)CO2 [Compound 16, 8-(6-aminopyridin-3-yl)-N-tert-butyl-1-(3,5-dichlorophenyl)-7-methoxy-N-methyl-1,4-dihydrochromeno[4,3-c]pyrazole-3-carboxamide] | 6.30 to 7.00 | > 8.00
4 | COc1cc2c(cc1-c1cncc(C(=O)O)c1)-c1c(c(C(=O)N(C)C(C)(C)C#N)nn1-c1cc(F)cc(F)c1)CO2 [Compound 107, 5-(3-((2-cyanopropan-2-yl)(methyl)carbamoyl)-1-(3,5-difluorophenyl)-7-methoxy-1,4-dihydrochromeno[4,3-c]pyrazole-8-yl)nicotinic acid] | 6.30 to 7.00 | > 8.00
5 | COc1cc2c(cc1-c1cncc(C#N)c1)-c1c(c(C(=O)N3CCOCC3(C)C)nn1-c1cc(F)cc(Cl)c1)CO2 [Compound 28, 5-(1-(3-chloro-5-fluorophenyl)-3-(3,3-dimethylmorpholine-4-carbonyl)-7-methoxy-1,4-dihydrochromeno[4,3-c]pyrazol-8-yl)nicotinonitrile] | 6.30 to 7.00 | > 8.00
6 | COc1cc2c(cc1-c1cnn(CC(=O)O)c1)-c1c(c(C(=O)N3CCOCC3(C)C)nn1-c1cc(F)cc(Cl)c1)CO2 [Compound 84, 2-(4-(1-(3-chloro-5-fluorophenyl)-3-(3,3-dimethylmorpholine-4-carbonyl)-7-methoxy-1,4-dihydrochromeno[4,3-c]pyrazol-8-yl)-1H-pyrazol-1-yl)acetic acid] | 6.30 to 7.00 | 7.00 to 8.00
7 | COc1cc2c(cc1-c1cncc(C(N)=O)c1)-c1c(c(C(=O)N(C)C(C)(C)C)nn1-c1ccccn1)CO2 [Compound 168] | 6.30 to 7.00 | > 8.00
8 | COc1cc(OC)cc(-n2nc(C(=O)N(C)C(C)(C)C)c3c2-c2cc(-c4cc[nH]c4)c(OC)cc2OC3)c1 [Compound 38] | 6.30 to 7.00 | 7.00 to 8.00
9 | COc1cc2c(cc1-c1ccn(C)n1)-c1c(c(C(=O)N(C)C(C)(C)C)nn1-c1cc(C)cc(Cl)c1)CO2 [Compound 30, N-tert-butyl-1-(3-chloro-5-methylphenyl)-7-methoxy-N-methyl-8-(1-methyl-1H-pyrazol-3-yl)-1,4-dihydrochromeno[4,3-c]pyrazole-3-carboxamide] | 6.30 to 7.00 | 6.30 to 7.00

Other lines, results leading:

Row | pEC50 [1] | pEC50 (FSHR) | SMILES
10 | 6.30 to 7.00 | 7.00 to 8.00 | COc1cc(OC)cc(-n2nc(C(=O)N(C)C(C)(C)C)c3c2-c2cc(-c4ccccn4)c(OC)cc2OC3)c1 [Compound 46, N-tert-butyl-1-(3,5-dimethoxyphenyl)-7-methoxy-N-methyl-8-(pyridin-2-yl)-1,4-dihydrochromeno[4,3-c]pyrazole-3-carboxamide]
11 | > 8.00 | > 8.00 | CNC(=O)c1cncc(-c2cc3c(cc2OC)OCc2c(C(=O)N4CCOCC4(C)C)nn(-c4cc(Cl)cc(Cl)c4)c2-3)c1 [Compound 94, 5-(1-(3,5-dichlorophenyl)-3-(3,3-dimethylmorpholine-4-carbonyl)-7-methoxy-1,4-dihydrochromeno[4,3-c]pyrazol-8-yl)-N-methylnicotinamide]
12 | 7.00 to 8.00 | > 8.00 | COc1cc2c(cc1-c1cc(C(N)=O)c[n+]([O-])c1)-c1c(c(C(=O)N3CCOCC3(C)C)nn1-c1cc(Cl)cc(Cl)c1)CO2 [Compound 174, 3-carbamoyl-5-(1-(3,5-dichlorophenyl)-3-(3,3-dimethylmorpholine-4-carbonyl)-7-methoxy-1,4-dihydrochromeno[4,3-c]pyrazol-8-yl)pyridine 1-oxide]
13 | 7.00 to 8.00 | > 8.00 | COc1cc2c(cc1-c1cncc(C(N)=O)c1C)-c1c(c(C(=O)N(C)C(C)(C)C#N)nn1-c1cc(Cl)cc(Cl)c1)CO2 [Compound 118, 8-(5-carbamoyl-4-methylpyridin-3-yl)-N-(2-cyanopropan-2-yl)-1-(3,5-dichlorophenyl)-7-methoxy-N-methyl-1,4-dihydrochromeno[4,3-c]pyrazole-3-carboxamide]
14 | 7.00 to 8.00 | > 8.00 | COc1cc(OC)cc(-n2nc(C(=O)N3CC[S+]([O-])CC3(C)C)c3c2-c2cc(-c4cccnc4F)c(OC)cc2OC3)c1 (stereo not drawn) [Compound 40, (1-(3,5-dimethoxyphenyl)-8-(2-fluoropyridin-3-yl)-7-methoxy-1,4-dihydrochromeno[4,3-c]pyrazol-3-yl)(S-oxo-3,3-dimethylthiomorpholino)methanone]
15 | 7.00 to 8.00 | > 8.00 | [2H]C([2H])([2H])Oc1cc(Cl)cc(-n2nc(C(=O)N(C)C(C)(C)C)c3c2-c2cc(-c4cncc(C#N)c4)c(OC([2H])([2H])[2H])cc2OC3)c1 [Compound 36, N-tert-butyl-1-(3-chloro-5-D3-methoxyphenyl)-8-(5-cyanopyridin-3-yl)-7-D3-methoxy-N-methyl-1H,4H-chromeno[4,3-c]pyrazole-3-carboxamide]
16 | 7.00 to 8.00 | > 8.00 | COc1cc2c(cc1-c1cncc(C(=O)N(C)C)c1)-c1c(c(C(=O)N3CCOCC3(C)C)nn1-c1cc(Cl)cc(Cl)c1)CO2 [Compound 101, 5-(1-(3,5-dichlorophenyl)-3-(3,3-dimethylmorpholine-4-carbonyl)-7-methoxy-1,4-dihydrochromeno[4,3-c]pyrazol-8-yl)-N,N-dimethylnicotinamide]
17 | 7.00 to 8.00 | > 8.00 | COc1cc2c(cc1-c1cncc(C(N)=O)c1)-c1c(c(C(=O)N(C)C(C)(C)C)nn1-c1cc(F)cc(F)c1)CO2 [Compound 161]
18 | 7.00 to 8.00 | > 8.00 | COc1cc2c(cc1-c1nn(C)cc1Cl)-c1c(c(C(=O)N3CCOCC3(C)C)nn1-c1cc(F)cc(F)c1)CO2 [Compound 151]
19 | 7.00 to 8.00 | > 8.00 | COc1cc2c(cc1-c1cnn(CC(=O)N(C)C)c1)-c1c(c(C(=O)N3CCOCC3(C)C)nn1-c1cc(Cl)cc(Cl)c1)CO2 [Compound 92, 2-(4-(1-(3,5-dichlorophenyl)-3-(3,3-dimethylmorpholine-4-carbonyl)-7-methoxy-1,4-dihydrochromeno[4,3-c]pyrazol-8-yl)-1H-pyrazol-1-yl)-N,N-dimethylacetamide]
20 | 7.00 to 8.00 | > 8.00 | COc1cc2c(cc1-c1cnn(CC(N)=O)c1)-c1c(c(C(=O)N3CCOCC3(C)C)nn1-c1cc(F)cc(F)c1)CO2 [Compound 99, 2-(4-(1-(3,5-difluorophenyl)-3-(3,3-dimethylmorpholine-4-carbonyl)-7-methoxy-1,4-dihydrochromeno[4,3-c]pyrazol-8-yl)-1H-pyrazol-1-yl)acetamide]
21 | > 8.00 | > 8.00 | COc1cc2c(cc1-c1cncc(C(N)=O)c1)-c1c(c(C(=O)N(C)C(C)(C)C)nn1-c1cc(Cl)cc(Cl)c1)CO2 [Compound 171]
